The source of these data is patent publication US6841177B1, “Pharmacological activities of curcuma longa extracts” (ASAC Compania de Biotecnologia e Investigacion S.A., priority 1999, dated 2005).

The subject of the data set is HaCat cells. The data set can be described thus: Incorporation of BrdU in the DNA of human keratinocytes after radiation with ultraviolet light. It is filed as cell-based. On the procedure: Culture of the HaCat line
The HaCat line is an immortalized line of normal human keratinocytes. These cells grow in a culture medium consisting of Hanks liquid to which 5% of foetal bovine serum and 2% of penicillin-streptomycin is added at 37° C. in a CO2 atmosphere.
To determine the replication rate, the cells were grown in microplates at a density of 2*10^4 cells per matrix. After 24 hours of treatment, the media was renewed and the cultures were incubated for 24 hours at 37° C. with different concentrations of the extracts and different concentrations of the curcumin and psoralen. Parallel controls were carried out with the solvent (ethanol 0.1%). The incorporation of BrdU was determined with the ELISA test.
The cells were radiated with UVA light at an intensity of 1 J/cm^2 and the incorporation of BrdU was then analysed.

Where [1] appears, read: after UVA radiation, human keratinocytes.

Structures are written as SMILES. Entries after “also recorded” stand apart in the source; their conditions may differ.

On to `O=c1ccc2cc3ccoc3cc2o1` [psoralen], for which the “toxicity at the dose giving the same photosensitivisation as Curcuma extracts” value (10 ng/ml) was “toxic doses; also recorded: toxic and mutagenic effects are produced”. Further, the “dose required to produce the same level of photosensitivisation as Curcuma extracts” value (after UV radiation, BrdU incorporation) was determined as 10 ng/mL.
On to `COc1cc(/C=C/C(=O)CC(=O)/C=C/c2ccc(O)c(OC)c2)ccc1O` [curcumin], for which, under setting [1], the “amount for 20 % incorporation of BrdU” value came out at 1200 ng, the “amount for 40 % incorporation of BrdU” value worked out at 1000 ng, the “amount for 60 % incorporation of BrdU” value was determined as 800 ng and the “amount for 80 % incorporation of BrdU” value is 600 ng.
